Patent publication US6528456B2, “Herbicidal 2-pyrazolyl-6-aryloxypyri(mi)dines” (BASF Aktiengesellschaft, priority 1999, dated 2003)

Experiments:
Format in all cases: in vivo
Stellaria media = assay: Pre-emergence test; details: 3 weeks after treatment
Method: (§1) To evaluate their herbicidal activity, compounds according to the invention are tested using a representative range of plants: STEME Stellaria media The pre-emergence tests involve spraying a liquid formulation of the compound onto the soil in which the seeds of the plant species mentioned above has recently been sown. The soil used in the tests is a prepared horticultural loam. The formulations used in the tests are prepared from solutions of the test compounds in acetone containing 0.4% by weight of an alkylphenol/ethylene oxide condensate available under the trade mark TRITON X-155. These acetone solutions are diluted with water and the resulting formulations applied at dosage levels corresponding to 0.025 kg, 0.100 kg or 0.400 kg of active material per hectare in a volume equivalent to 900 litres per hectare. In these tests untreated sown soil are used as controls. From 2 to 4 weeks after treatment, the tests are terminated and each pot is examined and rated according to the rating system set forth below: [table]

Echinochloa crus-galli [1] = assay: Pre-emergence test; details: 3 weeks after treatment
Method: as §1, with “ECHCG Echinochloa crus-galli” for “STEME Stellaria media”

Zea mays = assay: Pre-emergence test; details: 3 weeks after treatment
Method: as §1, with “ZEAMX Zea mays” for “STEME Stellaria media”

Ipomoea hederacea = assay: Post-emergence test; details: 2-4 weeks after treatment
Method: (§2) To evaluate their herbicidal activity, compounds according to the invention are tested using a representative range of plants: IPHOE Ipomoea hederacea [table] […] These acetone solutions are diluted with water and the resulting formulations applied at dosage levels equivalent of about 0.1 to 0. 4 kg per hectare of test compound per pot. After spraying the plants are placed on greenhouse benches and are cared for in the usual manner, commensurate with conventional greenhouse practices. From 2 to 4 weeks after treatment, the seedling plants are examined and rated according to the rating system provided above.

Matricaria inodora = assay: Post-emergence test; details: 2-4 weeks after treatment
Method: as §2, with “MATIN Matricaria inodora” for “IPHOE Ipomoea hederacea”

Alopecurus myosuroides = assay: Post-emergence test; details: 2-4 weeks after treatment
Method: as §2, with “ALOMY Alopecurus myosuroides” for “IPHOE Ipomoea hederacea”

Echinochloa crus-galli [2] = assay: Post-emergence test; details: 2-4 weeks after treatment
Method: as §2, with “ECHCG Echinochloa crus-galli” for “IPHOE Ipomoea hederacea”

Setaria viridis = assay: Post-emergence test; details: 2-4 weeks after treatment
Method: as §2, with “SETVI Setaria viridis” for “IPHOE Ipomoea hederacea”

Glycine max = assay: Post-emergence test; details: 2-4 weeks after treatment
Method: To evaluate their herbicidal activity, compounds according to the invention are tested using a representative range of plants:
These acetone solutions are diluted with water and the resulting formulations applied at dosage levels equivalent of about 0.1 to 0. 4 kg per hectare of test compound per pot. After spraying the plants are placed on greenhouse benches and are cared for in the usual manner, commensurate with conventional greenhouse practices. From 2 to 4 weeks after treatment, the seedling plants are examined and rated according to the rating system provided above.

With `Cn1nc(C(F)(F)F)cc1Oc1cc(C#N)cc(-c2cc(C(F)(F)F)nn2C)n1` [Example 3, 4-Cyano-2-(1-methyl-3-trifluoromethylpyrazol-5-yloxy)-6-(1-methyl-3-trifluoromethylpyrazol-5-yl)pyridine] the STEME herbicidal rating (Stellaria media; 0.025 kg/ha) was 8 (8 - Approaching complete kill), the STEME herbicidal rating (Stellaria media; 0.100 kg/ha) was 9 (9 - Complete kill) and the STEME herbicidal rating (Stellaria media; 0.400 kg/ha) was 9 (9 - Complete kill). The ECHCG herbicidal rating (Echinochloa crus-galli [1]; 0.025 kg/ha) was 2 (2 - Slight effect), the ECHCG herbicidal rating (Echinochloa crus-galli [1]; 0.100 kg/ha) was 4 (4 - Injury) and the ECHCG herbicidal rating (Echinochloa crus-galli [1]; 0.400 kg/ha) was 4 (4 - Injury). The ZEAMX herbicidal rating (Zea mays; 0.025 kg/ha) was 3 (3 - Moderate effect), the ZEAMX herbicidal rating (Zea mays; 0.100 kg/ha) was 3 (3 - Moderate effect) and the ZEAMX herbicidal rating (Zea mays; 0.400 kg/ha) was 5 (5 - Definite injury). For the same compound, the IPOHE herbicidal rating (Ipomoea hederacea; 0.1 kg/ha) was 6 (6 - Herbicidal effect), the IPOHE herbicidal rating (Ipomoea hederacea; 0.4 kg/ha) was 8 (8 - Approaching complete kill) and the MATIN herbicidal rating (Matricaria inodora; 0.1 kg/ha) was 8 (8 - Approaching complete kill). For the same compound, the MATIN herbicidal rating (Matricaria inodora; 0.4 kg/ha) was 8 (8 - Approaching complete kill), the ALOMY herbicidal rating (Alopecurus myosuroides; 0.1 kg/ha) was 3 (3 - Moderate effect) and the ALOMY herbicidal rating (Alopecurus myosuroides; 0.4 kg/ha) was 4 (4 - Injury). The ECHCG herbicidal rating (Echinochloa crus-galli [2]; 0.1 kg/ha) was 4 (4 - Injury), the ECHCG herbicidal rating (Echinochloa crus-galli [2]; 0.4 kg/ha) was 4 (4 - Injury) and the SETVI herbicidal rating (Setaria viridis; 0.1 kg/ha) was 5 (5 - Definite injury). The SETVI herbicidal rating (Setaria viridis; 0.4 kg/ha) was 7 (7 - Good herbicidal effect), the GLXMA herbicidal rating (Glycine max; 0.1 kg/ha) was 3 (3 - Moderate effect) and the GLXMA herbicidal rating (Glycine max; 0.4 kg/ha) was 4 (4 - Injury).
`Cc1cc(Oc2cccc(C(F)(F)F)c2)nc(-c2cc(C(F)(F)F)nn2C)c1` [Example 63] was tested, and the STEME herbicidal rating (Stellaria media; 0.100 kg/ha) was 3 (3 - Moderate effect), the STEME herbicidal rating (Stellaria media; 0.400 kg/ha) was 9 (9 - Complete kill) and the ECHCG herbicidal rating (Echinochloa crus-galli [1]; 0.025 kg/ha) was 0 (0 - No effect). The ECHCG herbicidal rating (Echinochloa crus-galli [1]; 0.100 kg/ha) was 0 (0 - No effect), the ECHCG herbicidal rating (Echinochloa crus-galli [1]; 0.400 kg/ha) was 4 (4 - Injury) and the ZEAMX herbicidal rating (Zea mays; 0.025 kg/ha) was 0 (0 - No effect). For the same compound, the ZEAMX herbicidal rating (Zea mays; 0.100 kg/ha) was 0 (0 - No effect), the ZEAMX herbicidal rating (Zea mays; 0.400 kg/ha) was 0 (0 - No effect) and the IPOHE herbicidal rating (Ipomoea hederacea; 0.1 kg/ha) was 8 (8 - Approaching complete kill). The IPOHE herbicidal rating (Ipomoea hederacea; 0.4 kg/ha) was 8 (8 - Approaching complete kill), the MATIN herbicidal rating (Matricaria inodora; 0.1 kg/ha) was 5 (5 - Definite injury) and the MATIN herbicidal rating (Matricaria inodora; 0.4 kg/ha) was 7 (7 - Good herbicidal effect). For the same compound, the ALOMY herbicidal rating (Alopecurus myosuroides; 0.1 kg/ha) was 1 (1 - Trace effect), the ALOMY herbicidal rating (Alopecurus myosuroides; 0.4 kg/ha) was 2 (2 - Slight effect) and the ECHCG herbicidal rating (Echinochloa crus-galli [2]; 0.1 kg/ha) was 3 (3 - Moderate effect). The ECHCG herbicidal rating (Echinochloa crus-galli [2]; 0.4 kg/ha) was 3 (3 - Moderate effect), the SETVI herbicidal rating (Setaria viridis; 0.1 kg/ha) was 3 (3 - Moderate effect) and the SETVI herbicidal rating (Setaria viridis; 0.4 kg/ha) was 6 (6 - Herbicidal effect). The GLXMA herbicidal rating (Glycine max; 0.1 kg/ha) was 3 (3 - Moderate effect) and the GLXMA herbicidal rating (Glycine max; 0.4 kg/ha) was 7 (7 - Good herbicidal effect).
In the case of `Cc1cnc(-c2cc(C(F)(F)F)nn2C)nc1Oc1cc(C(F)(F)F)nn1C` [Example 4, 2-(1-Methyl-3-trifluoromethylpyrazol-5-yl)-6-(1-methyl-3-trifluoromethylpyrazol-5-yloxy)-5-methylpyrimidine], the STEME herbicidal rating (Stellaria media; 0.025 kg/ha) is reported as 9 (9 - Complete kill), the STEME herbicidal rating (Stellaria media; 0.100 kg/ha) is reported as 9 (9 - Complete kill) and the STEME herbicidal rating (Stellaria media; 0.400 kg/ha) is reported as 9 (9 - Complete kill). For the same compound, the ECHCG herbicidal rating (Echinochloa crus-galli [1]; 0.025 kg/ha) was 4 (4 - Injury), the ECHCG herbicidal rating (Echinochloa crus-galli [1]; 0.100 kg/ha) was 7 (7 - Good herbicidal effect) and the ECHCG herbicidal rating (Echinochloa crus-galli [1]; 0.400 kg/ha) was 8 (8 - Approaching complete kill). For the same compound, the ZEAMX herbicidal rating (Zea mays; 0.025 kg/ha) was 2 (2 - Slight effect), the ZEAMX herbicidal rating (Zea mays; 0.100 kg/ha) was 2 (2 - Slight effect) and the ZEAMX herbicidal rating (Zea mays; 0.400 kg/ha) was 3 (3 - Moderate effect). For the same compound, the IPOHE herbicidal rating (Ipomoea hederacea; 0.1 kg/ha) was 9 (9 - Complete kill), the IPOHE herbicidal rating (Ipomoea hederacea; 0.4 kg/ha) was 9 (9 - Complete kill) and the MATIN herbicidal rating (Matricaria inodora; 0.1 kg/ha) was 5 (5 - Definite injury). The MATIN herbicidal rating (Matricaria inodora; 0.4 kg/ha) was 7 (7 - Good herbicidal effect), the ALOMY herbicidal rating (Alopecurus myosuroides; 0.1 kg/ha) was 5 (5 - Definite injury) and the ALOMY herbicidal rating (Alopecurus myosuroides; 0.4 kg/ha) was 7 (7 - Good herbicidal effect). The ECHCG herbicidal rating (Echinochloa crus-galli [2]; 0.1 kg/ha) was 8 (8 - Approaching complete kill), the ECHCG herbicidal rating (Echinochloa crus-galli [2]; 0.4 kg/ha) was 8 (8 - Approaching complete kill) and the SETVI herbicidal rating (Setaria viridis; 0.1 kg/ha) was 9 (9 - Complete kill). For the same compound, the SETVI herbicidal rating (Setaria viridis; 0.4 kg/ha) was 9 (9 - Complete kill), the GLXMA herbicidal rating (Glycine max; 0.1 kg/ha) was 4 (4 - Injury) and the GLXMA herbicidal rating (Glycine max; 0.4 kg/ha) was 6 (6 - Herbicidal effect).
